Where two headings read alike, the source gives them in different places.
Columns and labels:
endothelin receptor [1] = biological target: T1, endothelin receptor (Bos taurus, UniProt P28088); experiment: Endothelin receptor binding inhibition (125I-endothelin-1), bovine cerebellum membrane fraction (Test Example 1); conditions: read-out: IC₅₀
T1 construct: the suspension was used as a membrane fraction liquid; from tissue; host or cells: bovine cerebellum membrane fraction
T1 sequence (P28088 27-441): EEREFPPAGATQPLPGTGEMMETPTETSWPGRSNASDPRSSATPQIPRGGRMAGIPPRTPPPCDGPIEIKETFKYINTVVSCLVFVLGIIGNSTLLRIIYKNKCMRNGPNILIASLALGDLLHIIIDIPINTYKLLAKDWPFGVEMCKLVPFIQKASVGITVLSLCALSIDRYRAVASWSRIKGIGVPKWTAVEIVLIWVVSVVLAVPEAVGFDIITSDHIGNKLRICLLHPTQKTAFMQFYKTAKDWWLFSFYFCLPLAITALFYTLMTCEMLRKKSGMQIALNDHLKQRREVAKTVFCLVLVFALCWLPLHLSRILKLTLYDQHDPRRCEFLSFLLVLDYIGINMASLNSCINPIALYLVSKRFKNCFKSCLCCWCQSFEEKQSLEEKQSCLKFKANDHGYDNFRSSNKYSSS
Method: (§1) The resulting solid substance was prepared as a suspension containing 2 mg/ml of protein, and the suspension was used as a membrane fraction liquid. […]

endothelin receptor [2] = biological target: T2, endothelin receptor (Bos taurus, UniProt P21450); experiment: Endothelin receptor binding inhibition (125I-endothelin-1), bovine lung membrane fraction with RES-701-1 added (Test Example 2); conditions: read-out: IC₅₀
T2 construct: from tissue
T2 sequence (P21450 21-427): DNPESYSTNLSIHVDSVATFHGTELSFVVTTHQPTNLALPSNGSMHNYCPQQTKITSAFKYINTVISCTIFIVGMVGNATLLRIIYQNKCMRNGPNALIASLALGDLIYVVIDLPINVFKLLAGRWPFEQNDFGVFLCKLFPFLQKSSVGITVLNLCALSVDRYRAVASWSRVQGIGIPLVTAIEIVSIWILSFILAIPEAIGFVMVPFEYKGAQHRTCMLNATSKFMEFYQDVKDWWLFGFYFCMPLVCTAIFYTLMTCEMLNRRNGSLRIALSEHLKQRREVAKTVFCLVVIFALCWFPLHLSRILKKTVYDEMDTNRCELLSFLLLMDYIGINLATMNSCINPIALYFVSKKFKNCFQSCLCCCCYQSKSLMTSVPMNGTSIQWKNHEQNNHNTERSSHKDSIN
Method: as §1

IC50 (endothelin receptor [1]) [nM] | IC50 (endothelin receptor [2]) [nM] | Structure (SMILES) | IC50 (endothelin receptor [1]; Concentration causing 50 % inhibition of endothelin-1 binding, bovine cerebellum tissue membrane fraction, 25°C for 2 hours) [nM] | IC50 (endothelin receptor [2]; Concentration causing 50 % inhibition of endothelin-1 binding, bovine lung tissue membrane fraction, RES-701-1 added at […]) [nM]
49 | > 490 | C[C@@H]1NC(=O)[C@H]([C@@H](C)O)NC(=O)CNC(=O)[C@H](Cc2c[nH]cn2)NC(=O)[C@H](Cc2c[nH]c3ccccc23)NC(=O)[C@H](CC(N)=O)NC(=O)CNC(=O)C[C@@H](C(=O)N[C@@H](Cc2c[nH]c3ccccc23)C(=O)N[C@@H](Cc2ccccc2)C(=O)N[C@@H](Cc2ccccc2)C(=O)N[C@@H](CC(N)=O)C(=O)N[C@@H](Cc2ccc(O)cc2)C(=O)N[C@@H](Cc2ccc(O)cc2)C(=O)N[C@@H](Cc2c[nH]c3ccccc23)C(N)=O)NC(=O)[C@@H]2CCCN2C1=O [(I-3)] |  | 
 |  | COC(=O)[C@H](Cc1c[nH]c2ccccc12)NC(=O)[C@H](Cc1ccc(O)cc1)NC(=O)[C@H](Cc1ccc(O)cc1)NC(=O)[C@H](CC(N)=O)NC(=O)[C@H](Cc1ccccc1)NC(=O)[C@H](Cc1ccccc1)NC(=O)[C@H](Cc1c[nH]c2ccccc12)NC(=O)[C@@H]1CC(=O)NCC(=O)N[C@@H](CC(N)=O)C(=O)N[C@@H](Cc2c[nH]c3ccccc23)C(=O)N[C@@H](Cc2c[nH]cn2)C(=O)NCC(=O)N[C@@H]([C@@H](C)O)C(=O)N[C@@H](C)C(=O)N2CCC[C@H]2C(=O)N1 [(I-1)] | […] | 58

Source: EP0698614A1, “Endothelin-antagonizing peptide” (KYOWA HAKKO KOGYO CO., LTD., priority 1994, dated 1996)
